Data as given in patent US6525001B1, “Substituted pyrimidine and pyridine herbicides” (Mid-American Commercialization Corporation, priority 1997, dated 2003).

Columns and labels:
Type in all cases: in vivo
rice (Oryza sativa) = assay: Test B flood test; conditions: for Plant response rating, Rice: Postemergence (flood test species)
How it was run: (§1)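 Read-out is a visual response score from 0 (no effect) to 10 (complete control), assigned by comparison with untreated controls. Treatment was applied at the 2-leaf stage, and plants stayed in the greenhouse for twelve to sixteen days before scoring.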

[1] = test system: smallflower flatsedge (Cyperus difformis); assay: Test B flood test; conditions: for Plant response rating, S. Flatsedge: Postemergence (flood test species)
How it was run: as §1

[2] = test system: bamyardgrass (Echinochloa crus-galli); assay: Test B flood test; conditions: for Plant response rating, Barnyardgrass: Postemergence (flood test species)
How it was run: as §1

[3] = test system: duck salad (Heteranthera limosa); assay: Test B flood test; conditions: for Plant response rating, Ducksalad: Postemergence (flood test species)
How it was run: as §1

[4] = test system: velvetleaf (Abutilon theophrasti); assay: Test B pre-/postemergence; parameters: key: 0 is no effect; 10 is complete control
How it was run: (§2)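 Compounds in a surfactant-containing, non-phytotoxic solvent blend are applied to freshly planted seed (preemergence) and, concurrently, to seedlings of 2 to 18 cm at 1–4 leaves (postemergence). Plants stay in the greenhouse twelve to sixteen days and are then scored visually from 0 (no effect) to 10 (complete control).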

[5] = test system: wheat (Triticum aestivum); assay: Test B pre-/postemergence; parameters: key: 0 is no effect; 10 is complete control
How it was run: as §2

[6] = test system: cocklebur (Xanthium strumarium); assay: Test B pre-/postemergence; parameters: key: 0 is no effect; 10 is complete control
How it was run: as §2

[7] = test system: sugar beet (Beta vulgaris); assay: Test B pre-/postemergence; parameters: key: 0 is no effect; 10 is complete control
How it was run: as §2

[8] = test system: purple nutsedge (Cyperus rotundus); assay: Test B pre-/postemergence; parameters: key: 0 is no effect; 10 is complete control
How it was run: as §2

rape (Brassica napus) = assay: Test B pre-/postemergence; parameters: key: 0 is no effect; 10 is complete control
How it was run: as §2

[9] = test system: blackgrass (Alopecurus myosuroides); assay: Test B pre-/postemergence; parameters: key: 0 is no effect; 10 is complete control
How it was run: as §2

[10] = test system: pigweed (Amaranthus retroflexus); assay: Test B pre-/postemergence; parameters: key: 0 is no effect; 10 is complete control
How it was run: as §2

soybean (Glycine max) = assay: Test B pre-/postemergence; parameters: key: 0 is no effect; 10 is complete control
How it was run: as §2

[11] = test system: crabgrass (Digitaria sanguinalis); assay: Test B pre-/postemergence; parameters: key: 0 is no effect; 10 is complete control
How it was run: as §2

corn (Zea mays) = assay: Test B pre-/postemergence; parameters: key: 0 is no effect; 10 is complete control
How it was run: as §2

[12] = Rate 62 g/ha, Postemergence (flood test)
[13] = Rate 125 g/ha, Postemergence section (flood test species)
[14] = Preemergence, Rate 62 g/ha, scale of 0 to 10

Compound: Cc1cnc(-n2cnc(C(F)(F)F)n2)nc1C(=O)c1cccc(C(F)(F)F)c1 [Compound 67]
- Rice plant response rating (rice (Oryza sativa); [12]): 1
- Rice plant response rating (rice (Oryza sativa); [13]): 2
- Plant response rating, Rice (rice (Oryza sativa); Rate 250 g/ha): 2
- Plant response rating, Rice (rice (Oryza sativa); Rate 500 g/ha): 4
- S. Flatsedge plant response rating [1, 12]: 5
- S. Flatsedge plant response rating [1, 13]: 8
- Plant response rating, S. Flatsedge ([1]; Rate 250 g/ha): 9
- Plant response rating, S. Flatsedge ([1]; Rate 500 g/ha): 9
- Barnyardgrass plant response rating [2, 12]: 3
- Barnyardgrass plant response rating [2, 13]: 3
- Plant response rating, Barnyardgrass ([2]; Rate 250 g/ha): 5
- Plant response rating, Barnyardgrass ([2]; Rate 500 g/ha): 6
- Ducksalad plant response rating [3, 12]: 3
- Ducksalad plant response rating [3, 13]: 4
- Plant response rating, Ducksalad ([3]; Rate 250 g/ha): 6
- Plant response rating, Ducksalad ([3]; Rate 500 g/ha): 8
- Plant response rating, Velvetleaf [4, 14]: 8
- Velvetleaf plant response rating ([4]; Rate 62 g/ha, Postemergence): 8
- Velvetleaf plant response rating ([4]; Rate 125 g/ha, Postemergence): 8
- Plant response rating, Velvetleaf ([4]; Rate 125 g/ha, Preemergence): 9
- Plant response rating, Velvetleaf ([4]; Rate 250 g/ha, Postemergence): 8
- Plant response rating, Velvetleaf ([4]; Rate 250 g/ha, Preemergence): 10
- Plant response rating, Velvetleaf ([4]; Rate 500 g/ha, Postemergence): 8
- Plant response rating, Velvetleaf ([4]; Rate 500 g/ha, Preemergence): 10
- Plant response rating, Wheat [5, 14]: 3
- Wheat plant response rating ([5]; Rate 62 g/ha, Postemergence): 3
- Wheat plant response rating ([5]; Rate 125 g/ha, Postemergence): 4
- Plant response rating, Wheat ([5]; Rate 125 g/ha, Preemergence): 3
- Plant response rating, Wheat ([5]; Rate 250 g/ha, Postemergence): 5
- Plant response rating, Wheat ([5]; Rate 250 g/ha, Preemergence): 3
- Plant response rating, Wheat ([5]; Rate 500 g/ha, Postemergence): 6
- Plant response rating, Wheat ([5]; Rate 500 g/ha, Preemergence): 4
- Cocklebur plant response rating ([6]; Rate 62 g/ha, Postemergence): 7
- Cocklebur plant response rating ([6]; Rate 125 g/ha, Postemergence): 7
- Plant response rating, Cocklebur ([6]; Rate 250 g/ha, Postemergence): 8
- Plant response rating, Cocklebur ([6]; Rate 250 g/ha, Preemergence): 2
- Plant response rating, Cocklebur ([6]; Rate 500 g/ha, Postemergence): 9
- Plant response rating, Cocklebur ([6]; Rate 500 g/ha, Preemergence): 5
- Plant response rating, Sugarbeets [7, 14]: 9
- Sugarbeets plant response rating ([7]; Rate 62 g/ha, Postemergence): 9
- Sugarbeets plant response rating ([7]; Rate 125 g/ha, Postemergence): 9
- Plant response rating, Sugarbeets ([7]; Rate 125 g/ha, Preemergence): 10
- Plant response rating, Sugarbeets ([7]; Rate 250 g/ha, Postemergence): 9
- Plant response rating, Sugarbeets ([7]; Rate 250 g/ha, Preemergence): 10
- Plant response rating, Sugarbeets ([7]; Rate 500 g/ha, Postemergence): 9
- Plant response rating, Sugarbeets ([7]; Rate 500 g/ha, Preemergence): 10
- Nutsedge plant response rating ([8]; Rate 62 g/ha, Postemergence): 0
- Nutsedge plant response rating ([8]; Rate 125 g/ha, Postemergence): 2
- Plant response rating, Nutsedge ([8]; Rate 250 g/ha, Postemergence): 4
- Plant response rating, Nutsedge ([8]; Rate 500 g/ha, Preemergence): 0
- Plant response rating, Rape (rape (Brassica napus); [14]): 7
- Rape plant response rating (rape (Brassica napus); Rate 62 g/ha, Postemergence): 6
- Rape plant response rating (rape (Brassica napus); Rate 125 g/ha, Postemergence): 8
- Plant response rating, Rape (rape (Brassica napus); Rate 125 g/ha, Preemergence): 9
- Plant response rating, Rape (rape (Brassica napus); Rate 250 g/ha, Postemergence): 8
- Plant response rating, Rape (rape (Brassica napus); Rate 250 g/ha, Preemergence): 10
- Plant response rating, Rape (rape (Brassica napus); Rate 500 g/ha, Postemergence): 9
- Plant response rating, Rape (rape (Brassica napus); Rate 500 g/ha, Preemergence): 10
- Plant response rating, Blackgrass [9, 14]: 3
- Blackgrass plant response rating ([9]; Rate 62 g/ha, Postemergence): 5
- Blackgrass plant response rating ([9]; Rate 125 g/ha, Postemergence): 8
- Plant response rating, Blackgrass ([9]; Rate 125 g/ha, Preemergence): 4
- Plant response rating, Blackgrass ([9]; Rate 250 g/ha, Postemergence): 9
- Plant response rating, Blackgrass ([9]; Rate 250 g/ha, Preemergence): 8
- Plant response rating, Blackgrass ([9]; Rate 500 g/ha, Postemergence): 10
- Plant response rating, Blackgrass ([9]; Rate 500 g/ha, Preemergence): 9
- Plant response rating, Redroot pigweed [10, 14]: 9
- Redroot pigweed plant response rating ([10]; Rate 62 g/ha, Postemergence): 9
- Redroot pigweed plant response rating ([10]; Rate 125 g/ha, Postemergence): 10
- Plant response rating, Redroot pigweed ([10]; Rate 125 g/ha, Preemergence): 10
- Plant response rating, Redroot pigweed ([10]; Rate 250 g/ha, Postemergence): 10
- Plant response rating, Redroot pigweed ([10]; Rate 250 g/ha, Preemergence): 10
- Plant response rating, Redroot pigweed ([10]; Rate 500 g/ha, Postemergence): 10
- Plant response rating, Redroot pigweed ([10]; Rate 500 g/ha, Preemergence): 10
- Plant response rating, Soybean (soybean (Glycine max); [14]): 1
- Soybean plant response rating (soybean (Glycine max); Rate 62 g/ha, Postemergence): 7
- Soybean plant response rating (soybean (Glycine max); Rate 125 g/ha, Postemergence): 7
- Plant response rating, Soybean (soybean (Glycine max); Rate 125 g/ha, Preemergence): 2
- Plant response rating, Soybean (soybean (Glycine max); Rate 250 g/ha, Postemergence): 8
- Plant response rating, Soybean (soybean (Glycine max); Rate 250 g/ha, Preemergence): 3
- Plant response rating, Soybean (soybean (Glycine max); Rate 500 g/ha, Postemergence): 8
- Plant response rating, Soybean (soybean (Glycine max); Rate 500 g/ha, Preemergence): 8
- Plant response rating, Crabgrass [11, 14]: 6
- Crabgrass plant response rating ([11]; Rate 62 g/ha, Postemergence): 7
- Crabgrass plant response rating ([11]; Rate 125 g/ha, Postemergence): 9
- Plant response rating, Crabgrass ([11]; Rate 125 g/ha, Preemergence): 9
- Plant response rating, Crabgrass ([11]; Rate 250 g/ha, Postemergence): 10
- Plant response rating, Crabgrass ([11]; Rate 250 g/ha, Preemergence): 10
- Plant response rating, Crabgrass ([11]; Rate 500 g/ha, Postemergence): 10
- Plant response rating, Crabgrass ([11]; Rate 500 g/ha, Preemergence): 10
- Plant response rating, Corn (corn (Zea mays); [14]): 4
- Corn plant response rating (corn (Zea mays); Rate 62 g/ha, Postemergence): 4
- Corn plant response rating (corn (Zea mays); Rate 125 g/ha, Postemergence): 5
- Plant response rating, Corn (corn (Zea mays); Rate 125 g/ha, Preemergence): 4
- Plant response rating, Corn (corn (Zea mays); Rate 250 g/ha, Postemergence): 6
- Plant response rating, Corn (corn (Zea mays); Rate 250 g/ha, Preemergence): 4
- Plant response rating, Corn (corn (Zea mays); Rate 500 g/ha, Postemergence): 7
- Plant response rating, Corn (corn (Zea mays); Rate 500 g/ha, Preemergence): 7
